Measurements reported in patent US8192962B2, “Processes for detecting toxic substances” (Daikin Industries, Ltd., priority 2001, dated 2012).

Tested on: Energy system protein genes
Test: DNA chip mRNA expression in yeast, energy system protein genes (Table 4)
Format: cell-based, Saccharomyces cerevisiae S288C
How it was run: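 Expression change after 2 h toxicant exposure (growth-inhibiting, sub-lethal) of log-phase S. cerevisiae S288C at 25° C. Oligo-dT-purified mRNA was labeled with Cy3-dUTP or Cy5-dUTP and hybridized >12 h at 65° C. to a genome-wide chip; ratio of scanned fluorescence to control.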

SMILES: C[S+](C)[O-] [(15), dimethylsulfoxide]
- The level of expressed mRNA in the presence of chemical substance/The level of expressed mRNA in the absence of chemical substance (yeast gene YJL052W): 2.3
- The level of expressed mRNA in the presence of chemical substance/The level of expressed mRNA in the absence of chemical substance (yeast gene YJL166W, cells incubated two hours with the chemical substance): 0.5
- The level of expressed mRNA in the presence of chemical substance/The level of expressed mRNA in the absence of chemical substance (yeast gene YJR009C): 2.1
- The level of expressed mRNA in the presence of chemical substance/The level of expressed mRNA in the absence of chemical substance (yeast gene YJR048W): 0.6
- The level of expressed mRNA in the presence of chemical substance/The level of expressed mRNA in the absence of chemical substance (yeast gene YJR155W): 2.6
- The level of expressed mRNA in the presence of chemical substance/The level of expressed mRNA in the absence of chemical substance (yeast gene YKL016C, cells incubated two hours with the chemical substance): 0.7
- The level of expressed mRNA in the presence of chemical substance/The level of expressed mRNA in the absence of chemical substance (yeast gene YKL035W): 1.0
- The level of expressed mRNA in the presence of chemical substance/The level of expressed mRNA in the absence of chemical substance (yeast gene YKL060C, cells incubated two hours with the chemical substance): 1.6
- The level of expressed mRNA in the presence of chemical substance/The level of expressed mRNA in the absence of chemical substance (yeast gene YKL085W, cells incubated two hours with the chemical substance): 0.5
- The level of expressed mRNA in the presence of chemical substance/The level of expressed mRNA in the absence of chemical substance (yeast gene YKL150W): 0.9
- The level of expressed mRNA in the presence of chemical substance/The level of expressed mRNA in the absence of chemical substance (yeast gene YKL152C): 1.8
- The level of expressed mRNA in the presence of chemical substance/The level of expressed mRNA in the absence of chemical substance (yeast gene YKR058W, cells incubated two hours with the chemical substance, 25° C., YPD medium): 0.5
- The level of expressed mRNA in the presence of chemical substance/The level of expressed mRNA in the absence of chemical substance (yeast gene YKR097W): 2.5
- The level of expressed mRNA in the presence of chemical substance/The level of expressed mRNA in the absence of chemical substance (yeast gene YLL041C, cells incubated two hours with the chemical substance): 0.4
- The level of expressed mRNA in the presence of chemical substance/The level of expressed mRNA in the absence of chemical substance (yeast gene YLR038C, cells incubated two hours with the chemical substance): 0.7
- The level of expressed mRNA in the presence of chemical substance/The level of expressed mRNA in the absence of chemical substance (yeast gene YLR164W, cells incubated two hours with the chemical substance): 0.7
- The level of expressed mRNA in the presence of chemical substance/The level of expressed mRNA in the absence of chemical substance (yeast gene YLR174W, cells incubated two hours with the chemical substance): 0.8
- The level of expressed mRNA in the presence of chemical substance/The level of expressed mRNA in the absence of chemical substance (yeast gene YLR273C): 2.6
- The level of expressed mRNA in the presence of chemical substance/The level of expressed mRNA in the absence of chemical substance (yeast gene YLR295C, cells incubated two hours with the chemical substance, 25° C., YPD medium): 0.5
- The level of expressed mRNA in the presence of chemical substance/The level of expressed mRNA in the absence of chemical substance (yeast gene YLR304C, cells incubated two hours with the chemical substance): 1.6
- The level of expressed mRNA in the presence of chemical substance/The level of expressed mRNA in the absence of chemical substance (yeast gene YLR345W): 1.0
- The level of expressed mRNA in the presence of chemical substance/The level of expressed mRNA in the absence of chemical substance (yeast gene YLR377C, cells incubated two hours with the chemical substance): 0.8
- The level of expressed mRNA in the presence of chemical substance/The level of expressed mRNA in the absence of chemical substance (yeast gene YLR395C, cells incubated two hours with the chemical substance): 0.4
- The level of expressed mRNA in the presence of chemical substance/The level of expressed mRNA in the absence of chemical substance (yeast gene YML054C): 1.1
- The level of expressed mRNA in the presence of chemical substance/The level of expressed mRNA in the absence of chemical substance (yeast gene YML087C): 0.3
- The level of expressed mRNA in the presence of chemical substance/The level of expressed mRNA in the absence of chemical substance (yeast gene YML100W): 1.8
- The level of expressed mRNA in the presence of chemical substance/The level of expressed mRNA in the absence of chemical substance (yeast gene YML120C, cells incubated two hours with the chemical substance): 0.5
- The level of expressed mRNA in the presence of chemical substance/The level of expressed mRNA in the absence of chemical substance (yeast gene YML125C): 1.9
- The level of expressed mRNA in the presence of chemical substance/The level of expressed mRNA in the absence of chemical substance (yeast gene YMR089C): 1.8
- The level of expressed mRNA in the presence of chemical substance/The level of expressed mRNA in the absence of chemical substance (yeast gene YMR105C): 0.9
- The level of expressed mRNA in the presence of chemical substance/The level of expressed mRNA in the absence of chemical substance (yeast gene YMR118C): 0.9
- The level of expressed mRNA in the presence of chemical substance/The level of expressed mRNA in the absence of chemical substance (yeast gene YMR261C, cells incubated two hours with the chemical substance): 0.8
- The level of expressed mRNA in the presence of chemical substance/The level of expressed mRNA in the absence of chemical substance (yeast gene YNL037C): 0.9
- The level of expressed mRNA in the presence of chemical substance/The level of expressed mRNA in the absence of chemical substance (yeast gene YNL071W): 1.1
- The level of expressed mRNA in the presence of chemical substance/The level of expressed mRNA in the absence of chemical substance (yeast gene YNL237W): 1.6
- The level of expressed mRNA in the presence of chemical substance/The level of expressed mRNA in the absence of chemical substance (yeast gene YNL331C): 2.3
- The level of expressed mRNA in the presence of chemical substance/The level of expressed mRNA in the absence of chemical substance (yeast gene YOL086C, cells incubated two hours with the chemical substance): 1.6
- The level of expressed mRNA in the presence of chemical substance/The level of expressed mRNA in the absence of chemical substance (yeast gene YOL126C): 1.4
- The level of expressed mRNA in the presence of chemical substance/The level of expressed mRNA in the absence of chemical substance (yeast gene YOL157C): 1.1
- The level of expressed mRNA in the presence of chemical substance/The level of expressed mRNA in the absence of chemical substance (yeast gene YOL165C): 3.0
- The level of expressed mRNA in the presence of chemical substance/The level of expressed mRNA in the absence of chemical substance (yeast gene YOR136W): 1.2
- The level of expressed mRNA in the presence of chemical substance/The level of expressed mRNA in the absence of chemical substance (yeast gene YOR221C): 1.0
- The level of expressed mRNA in the presence of chemical substance/The level of expressed mRNA in the absence of chemical substance (yeast gene YOR347C): 2.0
- The level of expressed mRNA in the presence of chemical substance/The level of expressed mRNA in the absence of chemical substance (yeast gene YPL031C, cells incubated two hours with the chemical substance): 0.7
- The level of expressed mRNA in the presence of chemical substance/The level of expressed mRNA in the absence of chemical substance (yeast gene YPL088W): 3.2
- The level of expressed mRNA in the presence of chemical substance/The level of expressed mRNA in the absence of chemical substance (yeast gene YPL171C): 1.4
- The level of expressed mRNA in the presence of chemical substance/The level of expressed mRNA in the absence of chemical substance (yeast gene YPL240C): 1.2
- The level of expressed mRNA in the presence of chemical substance/The level of expressed mRNA in the absence of chemical substance (yeast gene YPL271W): 0.8
- The level of expressed mRNA in the presence of chemical substance/The level of expressed mRNA in the absence of chemical substance (yeast gene YPR006C): 0.7
- The level of expressed mRNA in the presence of chemical substance/The level of expressed mRNA in the absence of chemical substance (yeast gene YPR026W): 3.1
